Test results published in patent US20170151221A1, “PHARMACEUTICAL COMPOSITIONS COMPRISING CEFEPIME OR SULBACTAM” (priority 2014, published 2017).
Like-named read-outs stand apart in the source and are kept apart here.

Tests used:
[1] = tested on: A. baumannii 1449880 [OXA 51, OXA 23]; assay: MIC by agar dilution (Muller Hinton Agar, CLSI); format: cell-based; details: Acinetobacter baumannii
Protocol: (§1) The antibacterial activity of combinations according to the invention was investigated against various bacterial strains. In a typical study, minimum inhibitory concentrations (MIC) were determined using Muller Hinton Agar (MHA) (BD, USA) according to Clinical and Laboratory Standards Institute (CLSI) recommendations, (Clinical and Laboratory Standards Institute (CLSI), Performance Standards for Antimicrobial Susceptibility Testing, 20th Informational Supplement, M 100-S20, Volume 30, No. 1, 2010). In short, the inocula were adjusted to deliver about 10^4 colony forming units (CFU) per spot with a multipoint inoculator (Applied Quality Services, UK). The plates were pored with doubling concentration range of the test combinations according to invention containing MHA. The plates were inoculated and were incubated at 35° C. for 18 hours.

[2] = tested on: A. baumannii NCTC 13302 [OXA 51, OXA 25]; assay: MIC by agar dilution (Muller Hinton Agar, CLSI); format: cell-based; details: Acinetobacter baumannii
Protocol: as §1

[3] = tested on: A. baumannii 1363934 [OXA 51, OXA 23]; assay: MIC by agar dilution (Muller Hinton Agar, CLSI); format: cell-based; details: Acinetobacter baumannii
Protocol: as §1

[4] = tested on: A. baumannii NCTC 13304 [OXA 51, OXA 27]; assay: MIC by agar dilution (Muller Hinton Agar, CLSI); format: cell-based; details: Acinetobacter baumannii
Protocol: as §1

[5] = tested on: A. baumannii J 145 [OXA 51, OXA 24]; assay: MIC by agar dilution (Muller Hinton Agar, CLSI); format: cell-based; details: Acinetobacter baumannii
Protocol: as §1

[6] = tested on: A. baumannii S 8 [OXA 51, OXA 23]; assay: MIC by agar dilution (Muller Hinton Agar, CLSI); format: cell-based; details: Acinetobacter baumannii
Protocol: as §1

[7] = tested on: Acinetobacter baumannii NCTC 13301 producing Carbapenemase hydrolyzing OXA 23 enzyme; assay: Time kill study; format: cell-based; details: for Effect on bacterial count throughout the duration of the study (in words): cefepime, sulbactam, imipenem at 8 mcg/ml, compound of Formula (I) at 4 mcg/ml, alone or in combination
Protocol: (§2) The synergistic killing effect of the combinations according to invention was studied by performing typical time kill studies. Typically, freshly grown cultures were diluted to the required cell density (initial starting inoculum) in Cation adjusted Muller Hinton broth medium (BD, USA). The antibacterial agents at the required concentrations were added into the culture-containing medium either alone or in combination. The samples were incubated under shaking condition (120 rpm) at 37° C. Enumeration of viable bacterial count was undertaken, every 2 hour, by diluting in normal saline and plating on to the Tryptic Soya Agar plates (BD, USA). The plates were incubated for 24 hours to arrive at the viable bacterial count. […] The decrease of 1 Log CFU/ml, after administration of combination of present invention, in comparison to initial bacterial count corresponds to 90% killing of bacteria. Similarly, 2 Log CFU/ml reductions corresponds to 99% killing of bacteria and 3 Log CFU/ml reductions is equal to 99.9% killing of bacteria.
(§3) The assay without any antibacterial agent was taken as control.

[8] = tested on: Acinetobacter baumannii NCTC 13302 producing carbapenemase hydrolyzing OXA 25 enzyme; assay: Time kill study; format: cell-based; details: for Effect on bacterial count throughout the duration of the study (in words): cefepime, sulbactam, imipenem at 8 mcg/ml, compound of Formula (I) at 4 mcg/ml, alone or in combination
Protocol: as §2, §3

[9] = tested on: carbapenam hydrolyzing (CHDL) and oxacillinases (OXA) producing Acinetobactor strains; assay: Antibacterial activity, summary statements over Tables 1-3; format: cell-based, Acinetobacter baumannii; details: for Change of MIC values in the presence of compound of Formula (I) (in words): Table 1 strains, compound of Formula (I) at 4 or 8 mcg/ml; for Antibacterial effect against highly resistant strains of A. baumannii (in words): summary of Tables 1-3
Protocol: as §1, §2

[10] = agent alone, A. baumannii 1449880, read-out: MIC
[11] = NCTC13302, agent alone, A. baumannii NCTC 13302, read-out: MIC
[12] = agent alone, A. baumannii 1363934, read-out: MIC
[13] = NCTC13304, agent alone, A. baumannii NCTC 13304, read-out: MIC
[14] = agent alone, A. baumannii J 145, read-out: MIC
[15] = agent alone, A. baumannii S 8, read-out: MIC
[16] = 0 hours, agent alone at 8 mcg/ml
[17] = 2 hours, agent alone at 8 mcg/ml
[18] = 4 hours, agent alone at 8 mcg/ml
[19] = 6 hours, agent alone at 8 mcg/ml
[20] = 8 hours, agent alone at 8 mcg/ml
[21] = 0 hours, agent alone at 4 mcg/ml
[22] = 2 hours, agent alone at 4 mcg/ml
[23] = 4 hours, agent alone at 4 mcg/ml
[24] = 6 hours, agent alone at 4 mcg/ml
[25] = 8 hours, agent alone at 4 mcg/ml
[26] = read-out: MIC (mcg/ml) in presence of Compound of Formula (I) at 4 mcg/ml
[27] = read-out: MIC (mcg/ml) in presence of Compound of Formula (I) at 8 mcg/ml

| MIC [1, 10] [µg/mL] | MIC [2, 11] [µg/mL] | MIC [3, 12] [µg/mL] | MIC [4, 13] [µg/mL] | MIC [5, 14] [µg/mL] | MIC [6, 15] [µg/mL] | Structure (SMILES) | Bacterial count (Log10 CFU/ml) [7, 16] [Log10 CFU/ml] | Bacterial count (Log10 CFU/ml) [7, 17] [Log10 CFU/ml] | Bacterial count (Log10 CFU/ml) [7, 18] [Log10 CFU/ml] | Bacterial count (Log10 CFU/ml) [7, 19] [Log10 CFU/ml] | Bacterial count (Log10 CFU/ml) [7, 20] [Log10 CFU/ml] | Effect on bacterial count throughout the duration of the study (in words) ([7]; 8 hours) | Bacterial count (Log10 CFU/ml) [8, 16] [Log10 CFU/ml] | Bacterial count (Log10 CFU/ml) [8, 17] [Log10 CFU/ml] | Bacterial count (Log10 CFU/ml) [8, 18] [Log10 CFU/ml] | Bacterial count (Log10 CFU/ml) [8, 19] [Log10 CFU/ml] | Bacterial count (Log10 CFU/ml) [8, 20] [Log10 CFU/ml] | Effect on bacterial count throughout the duration of the study (in words) ([8]; 8 hours) | Change of MIC values in the presence of compound of Formula (I) (in words) [9] | Antibacterial effect against highly resistant strains of A. baumannii (in words) [9] | also measured |
| --- | --- | --- | --- | --- | --- | --- | --- | --- | --- | --- | --- | --- | --- | --- | --- | --- | --- | --- | --- | --- | --- |
| > 32 | 32 | > 32 | 32 | 32 | > 32 | CO/N=C(\C(=O)N[C@@H]1C(=O)N2C(C(=O)[O-])=C(C[N+]3(C)CCCC3)CS[C@H]12)c1csc(N)n1 [Cefepime] | 6.32 | 8.26 | 8.06 | 8.26 | 8.13 | not effective to decrease the bacterial count | 6.30 | 7.740 | 7.929 | 7.662 | 7.56 | not effective to decrease the bacterial count | significantly decreased | ineffective | MIC ([1]; with Compound of Formula (I) at 4 mcg/ml, A. baumannii 1449880, read-out: MIC (mcg/ml) in presence of Compound of Formula (I) at 4 mcg/ml): 2 µg/mL; MIC ([1]; with Compound of Formula (I) at 8 mcg/ml, A. baumannii 1449880, read-out: MIC (mcg/ml) in presence of Compound of Formula (I) at 8 mcg/ml): 2 µg/mL; MIC ([2]; NCTC13302, with Compound of Formula (I) at 4 mcg/ml, A. baumannii NCTC 13302, read-out: MIC (mcg/ml) in presence of Compound of Formula (I) at 4 mcg/ml): 8 µg/mL; MIC ([2]; NCTC13302, with Compound of Formula (I) at 8 mcg/ml, A. baumannii NCTC 13302, read-out: MIC (mcg/ml) in presence of Compound of Formula (I) at 8 mcg/ml): 8 µg/mL; MIC ([3]; with Compound of Formula (I) at 4 mcg/ml, A. baumannii 1363934, read-out: MIC (mcg/ml) in presence of Compound of Formula (I) at 4 mcg/ml): 16 µg/mL; MIC ([3]; with Compound of Formula (I) at 8 mcg/ml, A. baumannii 1363934, read-out: MIC (mcg/ml) in presence of Compound of Formula (I) at 8 mcg/ml): 8 µg/mL; MIC ([4]; NCTC13304, with Compound of Formula (I) at 4 mcg/ml, A. baumannii NCTC 13304, read-out: MIC (mcg/ml) in presence of Compound of Formula (I) at 4 mcg/ml): 8 µg/mL; MIC ([4]; NCTC13304, with Compound of Formula (I) at 8 mcg/ml, A. baumannii NCTC 13304, read-out: MIC (mcg/ml) in presence of Compound of Formula (I) at 8 mcg/ml): 4 µg/mL; MIC ([5]; with Compound of Formula (I) at 4 mcg/ml, A. baumannii J 145, read-out: MIC (mcg/ml) in presence of Compound of Formula (I) at 4 mcg/ml): 16 µg/mL; MIC ([5]; with Compound of Formula (I) at 8 mcg/ml, A. baumannii J 145, read-out: MIC (mcg/ml) in presence of Compound of Formula (I) at 8 mcg/ml): 8 µg/mL; MIC ([6]; with Compound of Formula (I) at 4 mcg/ml, A. baumannii S 8, read-out: MIC (mcg/ml) in presence of Compound of Formula (I) at 4 mcg/ml): 8 µg/mL; MIC ([6]; with Compound of Formula (I) at 8 mcg/ml, A. baumannii S 8, read-out: MIC (mcg/ml) in presence of Compound of Formula (I) at 8 mcg/ml): 8 µg/mL |
| > 128 | > 128 | > 128 | > 128 | > 128 | > 128 | O=C(NNC(=O)[C@@H]1CC[C@@H]2CN1C(=O)N2OS(=O)(=O)O)[C@@H]1CCNC1 [Compound of Formula (I), trans-sulfuric acid mono-[2-(N′-[(R)-pyrrolidin-3-carbonyl]-hydrazinocarbonyl)-7-oxo-1,6-diaza-bicyclo[3.2.1]oct-6-yl] ester] |  |  |  |  |  | not effective to decrease the bacterial count |  |  |  |  |  | not effective to decrease the bacterial count |  | ineffective | Bacterial count (Log10 CFU/ml) [7, 21]: 6.32 Log10 CFU/ml; Bacterial count (Log10 CFU/ml) [7, 22]: 8.02 Log10 CFU/ml; Bacterial count (Log10 CFU/ml) [7, 23]: 8.36 Log10 CFU/ml; Bacterial count (Log10 CFU/ml) [7, 24]: 8.35 Log10 CFU/ml; Bacterial count (Log10 CFU/ml) [7, 25]: 8.39 Log10 CFU/ml; Bacterial count (Log10 CFU/ml) [8, 21]: 6.30 Log10 CFU/ml; Bacterial count (Log10 CFU/ml) [8, 22]: 7.903 Log10 CFU/ml; Bacterial count (Log10 CFU/ml) [8, 23]: 7.845 Log10 CFU/ml; Bacterial count (Log10 CFU/ml) [8, 24]: 7.875 Log10 CFU/ml; Bacterial count (Log10 CFU/ml) [8, 25]: 8.04 Log10 CFU/ml |
| 8 | > 32 | > 32 | > 32 | > 32 | 16 | C[C@@H](O)[C@H]1C(=O)N2C(C(=O)O)=C(SCCN=CN)C[C@H]12 [Imipenem] | 6.32 | 8.20 | 8.43 | 8.43 | 8.51 |  | 6.30 | 8.079 | 8.703 | 8.176 | 8.38 |  |  |  |  |
|  |  |  |  |  |  | CC1(C)[C@H](C(=O)O)N2C(=O)C[C@H]2S1(=O)=O [Sulbactam] | 6.32 | 7.27 | 7.65 | 7.74 | 7.81 | not effective to decrease the bacterial count | 6.30 | 7.39 | 7.69 | 7.34 | 7.34 | not effective to decrease the bacterial count | significantly decreased | ineffective | MIC ([1]; read-out: MIC (mcg/ml)): 8 µg/mL; MIC [1, 26]: 0.5 µg/mL; MIC [1, 27]: 0.5 µg/mL; MIC ([2]; NCTC13302, read-out: MIC (mcg/ml)): 16 µg/mL; MIC ([2]; NCTC13302, read-out: MIC (mcg/ml) in presence of Compound of Formula (I) at 4 mcg/ml): 2 µg/mL; MIC ([2]; NCTC13302, read-out: MIC (mcg/ml) in presence of Compound of Formula (I) at 8 mcg/ml): 1 µg/mL; MIC ([3]; read-out: MIC (mcg/ml)): 16 µg/mL; MIC [3, 26]: 2 µg/mL; MIC [3, 27]: 2 µg/mL; MIC ([4]; NCTC13304, read-out: MIC (mcg/ml)): 16 µg/mL; MIC ([4]; NCTC13304, read-out: MIC (mcg/ml) in presence of Compound of Formula (I) at 4 mcg/ml): 2 µg/mL; MIC ([4]; NCTC13304, read-out: MIC (mcg/ml) in presence of Compound of Formula (I) at 8 mcg/ml): 2 µg/mL; MIC ([5]; read-out: MIC (mcg/ml)): 16 µg/mL; MIC [5, 26]: 2 µg/mL; MIC [5, 27]: 2 µg/mL; MIC ([6]; read-out: MIC (mcg/ml)): 16 µg/mL; MIC [6, 26]: 8 µg/mL; MIC [6, 27]: 4 µg/mL |
